Measured values: publication PMC4832243, “Discovery of Potent VEGFR-2 Inhibitors based on Furopyrimidine and Thienopyrimidne Scaffolds as Cancer Targeting Agents” (Scientific Reports, 2016)

Experiments:
Assay type in all cases: cell-based
CAKI-1 = experiment: NCI 60 cell line panel (SRB), CAKI-1; conditions: Homo sapiens; CAKI-1, Renal Cancer; single dose of 10 μM; read-out: Cell Growth Percent
HT29 = experiment: NCI 60 cell line panel (SRB), HT29; conditions: Homo sapiens, HT-29; HT29, Colon Cancer; single dose of 10 μM; read-out: Cell Growth Percent
SW-620 = experiment: NCI 60 cell line panel (SRB), SW-620; conditions: Homo sapiens; SW-620, Colon Cancer; single dose of 10 μM; read-out: Cell Growth Percent
SF-268 = experiment: NCI 60 cell line panel (SRB), SF-268; conditions: Homo sapiens; SF-268, CNS Cancer; single dose of 10 μM; read-out: Cell Growth Percent
OVCAR-8 = experiment: NCI 60 cell line panel (SRB), OVCAR-8; conditions: Homo sapiens; OVCAR-8, Ovarian Cancer; single dose of 10 μM; read-out: Cell Growth Percent
K-562 = experiment: NCI 60 cell line panel (SRB), K-562; conditions: Homo sapiens, K562; K-562, Leukemia; single dose of 10 μM; read-out: Cell Growth Percent
MCF7 = experiment: NCI 60 cell line panel (SRB), MCF7; conditions: Homo sapiens; MCF7, Breast Cancer; single dose of 10 μM; read-out: Cell Growth Percent
KM12 = experiment: NCI 60 cell line panel (SRB), KM12; conditions: Homo sapiens; KM12, Colon Cancer; single dose of 10 μM; read-out: Cell Growth Percent
SNB-19 = experiment: NCI 60 cell line panel (SRB), SNB-19; conditions: Homo sapiens; SNB-19, CNS Cancer; single dose of 10 μM; read-out: Cell Growth Percent
EKVX = experiment: NCI 60 cell line panel (SRB), EKVX; conditions: Homo sapiens, Non-Small Cell Lung Cancer, single dose of 10 μM, read-out: Cell Growth Percent
NCI-H522 = experiment: NCI 60 cell line panel (SRB), NCI-H522; conditions: Homo sapiens; NCI-H522, Non-Small Cell Lung Cancer; single dose of 10 μM; read-out: Cell Growth Percent
UO-31 = experiment: NCI 60 cell line panel (SRB), UO-31; conditions: Homo sapiens; UO-31, Renal Cancer; single dose of 10 μM; read-out: Cell Growth Percent
RXF 393 = experiment: NCI 60 cell line panel (SRB), RXF 393; conditions: Homo sapiens; RXF 393, Renal Cancer; single dose of 10 μM; read-out: Cell Growth Percent
OVCAR-3 = experiment: NCI 60 cell line panel (SRB), OVCAR-3; conditions: Homo sapiens; OVCAR-3, Ovarian Cancer; single dose of 10 μM; read-out: Cell Growth Percent
RPMI-8226 = experiment: NCI 60 cell line panel (SRB), RPMI-8226; conditions: Homo sapiens; RPMI-8226, Leukemia; single dose of 10 μM; read-out: Cell Growth Percent
M14 = experiment: NCI 60 cell line panel (SRB), M14; conditions: Homo sapiens; M14, Melanoma; single dose of 10 μM; read-out: Cell Growth Percent
MALME-3M = experiment: NCI 60 cell line panel (SRB), MALME-3M; conditions: Homo sapiens, Melanoma, single dose of 10 μM, read-out: Cell Growth Percent
ACHN = experiment: NCI 60 cell line panel (SRB), ACHN; conditions: Homo sapiens, Renal Cancer, single dose of 10 μM, read-out: Cell Growth Percent
NCI-H460 = experiment: NCI 60 cell line panel (SRB), NCI-H460; conditions: Homo sapiens; NCI-H460, Non-Small Cell Lung Cancer; single dose of 10 μM; read-out: Cell Growth Percent
SK-MEL-2 = experiment: NCI 60 cell line panel (SRB), SK-MEL-2; conditions: Homo sapiens; SK-MEL-2, Melanoma; single dose of 10 μM; read-out: Cell Growth Percent
A549/ATCC = experiment: NCI 60 cell line panel (SRB), A549/ATCC; conditions: Homo sapiens, Non-Small Cell Lung Cancer, single dose of 10 μM, read-out: Cell Growth Percent
DU-145 = experiment: NCI 60 cell line panel (SRB), DU-145; conditions: Homo sapiens; DU-145, Prostate Cancer; single dose of 10 μM; read-out: Cell Growth Percent
SK-OV-3 = experiment: NCI 60 cell line panel (SRB), SK-OV-3; conditions: Homo sapiens; SK-OV-3, Ovarian Cancer; single dose of 10 μM; read-out: Cell Growth Percent
SR = experiment: NCI 60 cell line panel (SRB), SR; conditions: Homo sapiens, Leukemia, single dose of 10 μM, read-out: Cell Growth Percent
A498 = experiment: NCI 60 cell line panel (SRB), A498; conditions: Homo sapiens; A498, Renal Cancer; single dose of 10 μM; read-out: Cell Growth Percent
NCI-H322M = experiment: NCI 60 cell line panel (SRB), NCI-H322M; conditions: Homo sapiens, Non-Small Cell Lung Cancer, single dose of 10 μM, read-out: Cell Growth Percent
MOLT-4 = experiment: NCI 60 cell line panel (SRB), MOLT-4; conditions: Homo sapiens; MOLT-4, Leukemia; single dose of 10 μM; read-out: Cell Growth Percent
MDA-MB-231/ATCC = experiment: NCI 60 cell line panel (SRB), MDA-MB-231/ATCC; conditions: Homo sapiens, Breast Cancer, single dose of 10 μM, read-out: Cell Growth Percent
SK-MEL-28 = experiment: NCI 60 cell line panel (SRB), SK-MEL-28; conditions: Homo sapiens; SK-MEL-28, Melanoma; single dose of 10 μM; read-out: Cell Growth Percent
NCI-H226 = experiment: NCI 60 cell line panel (SRB), NCI-H226; conditions: Homo sapiens; NCI-H226, Non-Small Cell Lung Cancer; single dose of 10 μM; read-out: Cell Growth Percent
HCT-15 = experiment: NCI 60 cell line panel (SRB), HCT-15; conditions: Homo sapiens; HCT-15, Colon Cancer; single dose of 10 μM; read-out: Cell Growth Percent
UACC-62 = experiment: NCI 60 cell line panel (SRB), UACC-62; conditions: Homo sapiens; UACC-62, Melanoma; single dose of 10 μM; read-out: Cell Growth Percent
SF-539 = experiment: NCI 60 cell line panel (SRB), SF-539; conditions: Homo sapiens; SF-539, CNS Cancer; single dose of 10 μM; read-out: Cell Growth Percent
PC-3 = experiment: NCI 60 cell line panel (SRB), PC-3; conditions: Homo sapiens; PC-3, Prostate Cancer; single dose of 10 μM; read-out: Cell Growth Percent

SMILES | activity at 10 µM (CAKI-1) | activity at 10 µM (HT29) | activity at 10 µM (SW-620) | activity at 10 µM (SF-268) | activity at 10 µM (OVCAR-8) | activity at 10 µM (K-562) | activity at 10 µM (MCF7) | activity at 10 µM (KM12) | activity at 10 µM (SNB-19) | activity at 10 µM (EKVX) | activity at 10 µM (NCI-H522) | activity at 10 µM (UO-31) | activity at 10 µM (RXF 393) | activity at 10 µM (OVCAR-3) | activity at 10 µM (RPMI-8226) | activity at 10 µM (M14) | activity at 10 µM (MALME-3M) | activity at 10 µM (ACHN) | activity at 10 µM (NCI-H460) | activity at 10 µM (SK-MEL-2) | further results
COc1cccc(NC(=O)Nc2ccc(Nc3ncnc4sc5c(c34)CCCC5)cc2)c1 [Compound 20c] | 97% | 104% | 112% | 99.5% | 113% | 97.2% | 86.2% | 89.6% | 95.2% | 89.6% | 81.2% | 61% | 116% | 99.1% | 102% | 89.8% | 79.9% | 92% | 106% | 116% | activity at 10 µM (A549/ATCC): 78.3%; activity at 10 µM (DU-145): 105%; activity at 10 µM (SK-OV-3): 88.4%; activity at 10 µM (SR): 84.6%; activity at 10 µM (A498): 91.3%; activity at 10 µM (NCI-H322M): 98.8%; activity at 10 µM (MOLT-4): 81.3%; activity at 10 µM (MDA-MB-231/ATCC): 89%; activity at 10 µM (SK-MEL-28): 93.3%; activity at 10 µM (NCI-H226): 90.1%; activity at 10 µM (HCT-15): 97.8%; activity at 10 µM (UACC-62): 106%; activity at 10 µM (SF-539): 60.2%; activity at 10 µM (PC-3): 89.6%
O=C(Nc1ccc(Nc2ncnc3sc4c(c23)CCCC4)cc1)Nc1cccc(Cl)c1 [Compound 20d] | 97.2% | 87.8% | 108% | 106% | 112% | 110% | 91.9% | 105% | 108% | 96.9% | 92.1% | 90.9% | 115% | 110% | 106% | 99.3% | 97.9% | 99.7% | 110% | 116% | activity at 10 µM (A549/ATCC): 74.2%; activity at 10 µM (DU-145): 110%; activity at 10 µM (SK-OV-3): 98.6%; activity at 10 µM (SR): 102%; activity at 10 µM (A498): 86.7%; activity at 10 µM (NCI-H322M): 104%; activity at 10 µM (MOLT-4): 92.3%; activity at 10 µM (MDA-MB-231/ATCC): 101%; activity at 10 µM (SK-MEL-28): 104%; activity at 10 µM (NCI-H226): 103%; activity at 10 µM (HCT-15): 104%; activity at 10 µM (UACC-62): 106%; activity at 10 µM (SF-539): 90.8%; activity at 10 µM (PC-3): 96%
CCOC(=O)c1c(C)oc2ncnc(Nc3ccc(C(=O)NCCc4ccccc4)cc3)c12 [Compound 14e] | 92.5% | 58.8% | 105% | 74.1% | 76.6% | 88.9% | 78.6% | 89% | 84% | 90.3% | 66.9% | 97.3% | 71.7% | 97.2% | 84.5% | 81.2% | 89.5% | 88.7% | 82.9% | 82.4% | activity at 10 µM (A549/ATCC): 56.6%; activity at 10 µM (DU-145): 82.1%; activity at 10 µM (SK-OV-3): 85.5%; activity at 10 µM (SR): 89.2%; activity at 10 µM (A498): 77.5%; activity at 10 µM (NCI-H322M): 92.9%; activity at 10 µM (MOLT-4): 105%; activity at 10 µM (MDA-MB-231/ATCC): 85.6%; activity at 10 µM (SK-MEL-28): 87.8%; activity at 10 µM (NCI-H226): 63.1%; activity at 10 µM (HCT-15): 92.2%; activity at 10 µM (UACC-62): 94.9%; activity at 10 µM (SF-539): 58.9%; activity at 10 µM (PC-3): 59.2%
O=C(Nc1ccccc1)Nc1ccc(Oc2ncnc3sc4c(c23)CCCC4)cc1 [Compound 21a] | 83.4% | 74.3% | 92% | 76.3% | 93.5% | 26.1% | 44.5% | 46.4% | 63.1% | 60.8% | 15.6% | 55.2% | 72% | 74.9% | 50.5% | 56.5% | 84.2% | 78.7% | 70.7% | 87.6% | activity at 10 µM (A549/ATCC): 67.8%; activity at 10 µM (DU-145): 86.1%; activity at 10 µM (SK-OV-3): 72.2%; activity at 10 µM (SR): 24.3%; activity at 10 µM (A498): 56.7%; activity at 10 µM (NCI-H322M): 99.7%; activity at 10 µM (MOLT-4): 54%; activity at 10 µM (MDA-MB-231/ATCC): 66.2%; activity at 10 µM (SK-MEL-28): 86.6%; activity at 10 µM (NCI-H226): 66.6%; activity at 10 µM (HCT-15): 49.2%; activity at 10 µM (UACC-62): 66.5%; activity at 10 µM (SF-539): 44%; activity at 10 µM (PC-3): 33.4%
